From ChEMBL document CHEMBL5143585, “Discovery and characterization of benzyloxy piperidine based dopamine 4 receptor antagonists” (Bioorg Med Chem Lett, 2022)

target: D(2) dopamine receptor (Homo sapiens) (UniProt P14416); test: Displacement of [3H]N-methylspiperone from human D2 receptor expressed in HEK293 cell membrane at 10 uM by competitive inhibition based analysis; type: cell membranes; conditions: not given
Sequence (P14416 whole entry): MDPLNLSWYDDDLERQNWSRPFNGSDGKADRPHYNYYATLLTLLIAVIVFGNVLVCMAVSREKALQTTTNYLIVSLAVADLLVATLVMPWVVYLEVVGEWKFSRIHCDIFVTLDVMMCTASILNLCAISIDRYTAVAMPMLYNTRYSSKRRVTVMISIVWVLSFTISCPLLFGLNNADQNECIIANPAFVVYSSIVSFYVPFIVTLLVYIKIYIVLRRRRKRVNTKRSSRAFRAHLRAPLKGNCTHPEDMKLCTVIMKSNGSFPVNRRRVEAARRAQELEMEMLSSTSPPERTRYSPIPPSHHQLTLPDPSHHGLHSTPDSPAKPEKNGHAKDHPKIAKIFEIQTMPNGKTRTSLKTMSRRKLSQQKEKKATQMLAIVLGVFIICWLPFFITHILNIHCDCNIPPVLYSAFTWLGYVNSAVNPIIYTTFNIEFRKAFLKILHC

Which inhibition does the source give for `Cc1ccc(CO[C@H]2CCCN(Cc3ccc(C#N)cc3)C2)cc1` here?
The inhibition was < 50%.

Which inhibition does the source give for `COc1ccc(CN2CCC[C@H](OCc3cccc(C)n3)C2)cc1F` here?
Its inhibition is < 50%.

For `Fc1ccc(COC2CCN(Cc3ncc4ccccn34)CC2)cc1F`, which inhibition is on record?
Its inhibition is < 50%.

With `Fc1cccc(CO[C@H]2CCCN(Cc3cn4ccccc4n3)C2)c1` as the compound, how does the inhibition read?
Its inhibition is < 50%.

For `COc1ccc(CN2CCC[C@H](OCc3ccc(F)c(F)c3)C2)cc1F`, which inhibition is on record?
Its inhibition is < 50%.

With `COc1ccc(CN2CCC[C@H](OCc3ccc(C)cc3)C2)cc1F` as the compound, how does the inhibition read?
Its inhibition is < 50%.

For `COc1ccc(CN2CCC[C@H](OCc3ccccc3C)C2)cc1F`, which inhibition is on record?
The inhibition was < 50%.

Which inhibition does the source give for `Fc1ccc(CO[C@H]2CCCN(Cc3cn4ccccc4n3)C2)cc1F` here?
The inhibition was < 50%.

For `Cn1ncc2cc(CN3CCC(OCc4ccc(Cl)c(F)c4)CC3)ccc21`, which inhibition is on record?
Its inhibition is < 50%.

With `COc1ccc(CN2CCC[C@H](OCc3cccc(F)c3)C2)cc1F` as the compound, how does the inhibition read?
The inhibition was < 50%.

For `COc1ccc(CN2CCC[C@H](OCc3ccc(F)c(C)c3)C2)cc1F`, which inhibition is on record?
The inhibition was < 50%.

test system: not listed separately; test: Protein binding in human plasma assessed as unbound fraction; type: ADME, cell-free; conditions: not given

With `COc1ccc(CN2CCC[C@H](OCc3ccc(F)c(F)c3)C2)cc1F` as the compound, how does the Fu read?
Its Fu is 1.1%.

For `Fc1ccc(CO[C@H]2CCCN(Cc3cn4ccccc4n3)C2)cc1F`, which Fu is on record?
The Fu was 0.2%.

With `Cn1ncc2cc(CN3CCC(OCc4ccc(Cl)c(F)c4)CC3)ccc21` as the compound, how does the Fu read?
Its Fu is 0.9%.

test system: not listed separately; test: Protein binding in mouse plasma assessed as unbound fraction; type: ADME, cell-free; conditions: not given

For `COc1ccc(CN2CCC[C@H](OCc3ccc(F)c(F)c3)C2)cc1F`, which Fu is on record?
Its Fu is 2.6%.

For `Fc1ccc(CO[C@H]2CCCN(Cc3cn4ccccc4n3)C2)cc1F`, which Fu is on record?
Its Fu is 8.7%.

With `Cn1ncc2cc(CN3CCC(OCc4ccc(Cl)c(F)c4)CC3)ccc21` as the compound, how does the Fu read?
Its Fu is 5.2%.

target: D(1B) dopamine receptor (Homo sapiens, UniProt P21918); test: Displacement of [3H]-SCH23390 from human D5 receptor expressed in HEK293 cell membrane at 10 uM by competitive inhibition based analysis; type: cell membranes; conditions: not given
Sequence (P21918 whole entry): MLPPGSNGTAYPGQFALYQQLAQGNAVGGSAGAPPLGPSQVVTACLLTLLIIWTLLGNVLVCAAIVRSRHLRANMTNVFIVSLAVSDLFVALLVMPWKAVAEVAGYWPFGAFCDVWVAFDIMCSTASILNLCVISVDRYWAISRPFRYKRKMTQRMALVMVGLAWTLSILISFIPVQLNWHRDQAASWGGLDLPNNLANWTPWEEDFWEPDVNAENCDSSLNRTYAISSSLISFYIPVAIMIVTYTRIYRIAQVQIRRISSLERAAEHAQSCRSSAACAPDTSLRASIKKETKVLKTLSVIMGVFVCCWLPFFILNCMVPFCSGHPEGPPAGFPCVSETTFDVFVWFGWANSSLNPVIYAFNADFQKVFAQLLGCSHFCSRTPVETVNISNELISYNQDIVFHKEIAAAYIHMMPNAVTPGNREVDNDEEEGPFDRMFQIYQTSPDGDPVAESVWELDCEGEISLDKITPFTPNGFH

With `Cc1ccc(CO[C@H]2CCCN(Cc3ccc(C#N)cc3)C2)cc1` as the compound, how does the inhibition read?
The inhibition was < 50%.

Which inhibition does the source give for `COc1ccc(CN2CCC[C@H](OCc3cccc(C)n3)C2)cc1F` here?
Its inhibition is < 50%.

For `Fc1ccc(COC2CCN(Cc3ncc4ccccn34)CC2)cc1F`, which inhibition is on record?
Its inhibition is < 50%.

For `Fc1cccc(CO[C@H]2CCCN(Cc3cn4ccccc4n3)C2)c1`, which inhibition is on record?
Its inhibition is < 50%.

For `COc1ccc(CN2CCC[C@H](OCc3ccc(F)c(F)c3)C2)cc1F`, which inhibition is on record?
The inhibition was < 50%.

With `COc1ccc(CN2CCC[C@H](OCc3ccc(C)cc3)C2)cc1F` as the compound, how does the inhibition read?
The inhibition was < 50%.

For `COc1ccc(CN2CCC[C@H](OCc3ccccc3C)C2)cc1F`, which inhibition is on record?
Its inhibition is < 50%.

Which inhibition does the source give for `Fc1ccc(CO[C@H]2CCCN(Cc3cn4ccccc4n3)C2)cc1F` here?
The inhibition was < 50%.

With `Cn1ncc2cc(CN3CCC(OCc4ccc(Cl)c(F)c4)CC3)ccc21` as the compound, how does the inhibition read?
The inhibition was < 50%.

With `COc1ccc(CN2CCC[C@H](OCc3cccc(F)c3)C2)cc1F` as the compound, how does the inhibition read?
The inhibition was < 50%.

With `COc1ccc(CN2CCC[C@H](OCc3ccc(F)c(C)c3)C2)cc1F` as the compound, how does the inhibition read?
Its inhibition is < 50%.

target: D(3) dopamine receptor (Homo sapiens, UniProt P35462); test: Displacement of [3H]N-methylspiperone from human D3 receptor expressed in HEK293 cell membrane at 10 uM by competitive inhibition based analysis; type: cell membranes; conditions: not given
Sequence (P35462 whole entry): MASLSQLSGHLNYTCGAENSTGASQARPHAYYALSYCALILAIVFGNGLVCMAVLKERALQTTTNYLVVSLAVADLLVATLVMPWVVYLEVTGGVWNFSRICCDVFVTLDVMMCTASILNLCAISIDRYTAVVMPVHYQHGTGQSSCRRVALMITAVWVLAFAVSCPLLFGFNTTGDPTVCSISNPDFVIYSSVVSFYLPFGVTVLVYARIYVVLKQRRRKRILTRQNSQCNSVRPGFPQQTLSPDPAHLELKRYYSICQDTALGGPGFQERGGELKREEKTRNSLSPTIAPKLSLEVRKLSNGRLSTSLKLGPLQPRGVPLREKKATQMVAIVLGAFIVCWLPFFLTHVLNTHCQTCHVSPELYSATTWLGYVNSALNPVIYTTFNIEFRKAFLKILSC

With `Cc1ccc(CO[C@H]2CCCN(Cc3ccc(C#N)cc3)C2)cc1` as the compound, how does the inhibition read?
The inhibition was < 50%.

Which inhibition does the source give for `COc1ccc(CN2CCC[C@H](OCc3cccc(C)n3)C2)cc1F` here?
Its inhibition is < 50%.

With `Fc1ccc(COC2CCN(Cc3ncc4ccccn34)CC2)cc1F` as the compound, how does the inhibition read?
The inhibition was < 50%.

For `Fc1cccc(CO[C@H]2CCCN(Cc3cn4ccccc4n3)C2)c1`, which inhibition is on record?
The inhibition was < 50%.

With `COc1ccc(CN2CCC[C@H](OCc3ccc(F)c(F)c3)C2)cc1F` as the compound, how does the inhibition read?
Its inhibition is < 50%.

Which inhibition does the source give for `COc1ccc(CN2CCC[C@H](OCc3ccc(C)cc3)C2)cc1F` here?
The inhibition was < 50%.

For `COc1ccc(CN2CCC[C@H](OCc3ccccc3C)C2)cc1F`, which inhibition is on record?
Its inhibition is < 50%.

With `Fc1ccc(CO[C@H]2CCCN(Cc3cn4ccccc4n3)C2)cc1F` as the compound, how does the inhibition read?
Its inhibition is < 50%.

With `Cn1ncc2cc(CN3CCC(OCc4ccc(Cl)c(F)c4)CC3)ccc21` as the compound, how does the inhibition read?
The inhibition was < 50%.

For `COc1ccc(CN2CCC[C@H](OCc3cccc(F)c3)C2)cc1F`, which inhibition is on record?
Its inhibition is < 50%.

With `COc1ccc(CN2CCC[C@H](OCc3ccc(F)c(C)c3)C2)cc1F` as the compound, how does the inhibition read?
The inhibition was < 50%.

target: T1, D(4) dopamine receptor (Homo sapiens, UniProt P21917); test: Displacement of [3H]N-methylspiperone from human D4 receptor expressed in HEK293 cell membrane by competitive inhibition based analysis; type: cell membranes; conditions: not given
T1 sequence (P21917 whole entry): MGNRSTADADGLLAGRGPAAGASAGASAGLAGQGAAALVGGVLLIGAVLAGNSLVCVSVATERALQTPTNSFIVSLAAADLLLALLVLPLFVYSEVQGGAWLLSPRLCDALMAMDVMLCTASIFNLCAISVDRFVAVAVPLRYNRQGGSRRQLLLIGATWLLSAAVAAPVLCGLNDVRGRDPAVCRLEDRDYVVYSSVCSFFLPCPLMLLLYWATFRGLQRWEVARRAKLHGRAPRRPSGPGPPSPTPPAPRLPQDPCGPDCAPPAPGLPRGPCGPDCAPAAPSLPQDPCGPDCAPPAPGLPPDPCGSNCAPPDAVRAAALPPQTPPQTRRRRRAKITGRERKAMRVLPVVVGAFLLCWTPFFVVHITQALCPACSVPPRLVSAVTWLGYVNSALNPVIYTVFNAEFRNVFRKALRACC

With `COc1ccc(CN2CCC[C@@H](OCc3ccc(F)c(C)c3)C2)cc1F` as the compound, how does the IC50 read?
The IC50 was 2000 nM.

And the Ki?
Its Ki is 1980 nM.

With `Cn1cnc2cc(CN3CCC(OCc4ccc(F)c(F)c4)CC3)ccc21` as the compound, how does the IC50 read?
The IC50 was 1410 nM.

And the Ki?
The Ki was 1400 nM.

With `Fc1cc(COC2CCN(Cc3ccc4[nH]ncc4c3)CC2)ccc1Cl` as the compound, how does the IC50 read?
Its IC50 is 575 nM.

What about the Ki of the same compound?
The Ki was 580 nM.

For `Cc1ccc(CO[C@H]2CCCN(Cc3ccc(C#N)cc3)C2)cc1`, which IC50 is on record?
Its IC50 is 1020 nM.

And the Ki?
Its Ki is 1010 nM.

With `Fc1ccc(COC2CCN(Cc3ccc4[nH]ncc4c3)CC2)cc1F` as the compound, how does the IC50 read?
Its IC50 is 1740 nM.

What about the Ki of the same compound?
Its Ki is 1730 nM.

What does the source list for `COc1ccc(CN2CCC[C@H](OCc3cccc(C)n3)C2)cc1F`?
IC50: 1050 nM; Ki: 1040 nM

Which results are given for `FC(F)(F)c1cccc(COC2CCN(Cc3ccc4[nH]ncc4c3)CC2)c1`?
IC50: 851 nM; Ki: 860 nM

What does the source list for `Fc1ccc(COC2CCN(Cc3ncc4ccccn34)CC2)cc1F`?
IC50: 214 nM; Ki: 215 nM

What does the source list for `Fc1cccc(CO[C@H]2CCCN(Cc3cn4ccccc4n3)C2)c1`?
IC50: 1950 nM; Ki: 1940 nM

Which IC50 does the source give for `COc1ccc(CN2CCC[C@H](OCc3ccc(F)c(F)c3)C2)cc1F` here?
Its IC50 is 170 nM.

What about the Ki of the same compound?
The Ki was 169 nM.

With `COc1ccc(CN2CCC[C@H](OCc3ccc(C)cc3)C2)cc1F` as the compound, how does the IC50 read?
Its IC50 is 240 nM.

What about the Ki of the same compound?
The Ki was 241 nM.

Which IC50 does the source give for `COc1ccc(CN2CCC[C@H](OCc3ccccc3C)C2)cc1F` here?
The IC50 was 347 nM.

And the Ki?
The Ki was 343 nM.

What does the source list for `Fc1ccc(CO[C@H]2CCCN(Cc3cn4ccccc4n3)C2)cc1F`?
IC50: 372 nM; Ki: 375 nM

What does the source list for `Cn1ncc2cc(CN3CCC(OCc4ccc(Cl)c(F)c4)CC3)ccc21`?
IC50: 170 nM; Ki: 170 nM

With `COc1ccc(CN2CCC[C@H](OCc3cccc(F)c3)C2)cc1F` as the compound, how does the IC50 read?
Its IC50 is 204 nM.

And the Ki?
Its Ki is 206 nM.

What does the source list for `COc1ccc(CN2CCC[C@H](OCc3ccc(F)c(C)c3)C2)cc1F`?
IC50: 135 nM; Ki: 135 nM

target: D(1A) dopamine receptor (Homo sapiens, UniProt P21728); test: Displacement of [3H]-SCH23390 from human D1 receptor expressed in HEK293 cell membrane at 10 uM by competitive inhibition based analysis; type: cell membranes; conditions: not given
Sequence (P21728 whole entry): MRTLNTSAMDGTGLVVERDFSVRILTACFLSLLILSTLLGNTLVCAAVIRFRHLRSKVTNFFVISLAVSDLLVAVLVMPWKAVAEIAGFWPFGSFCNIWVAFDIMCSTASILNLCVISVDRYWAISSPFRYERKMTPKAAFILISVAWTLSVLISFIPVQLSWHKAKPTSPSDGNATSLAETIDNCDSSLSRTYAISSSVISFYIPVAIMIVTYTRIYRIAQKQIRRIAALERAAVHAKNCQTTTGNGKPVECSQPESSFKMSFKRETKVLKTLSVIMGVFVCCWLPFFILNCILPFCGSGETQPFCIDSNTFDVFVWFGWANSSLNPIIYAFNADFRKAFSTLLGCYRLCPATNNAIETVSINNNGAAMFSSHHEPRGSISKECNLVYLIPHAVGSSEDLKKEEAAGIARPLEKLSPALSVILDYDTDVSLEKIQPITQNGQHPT

For `Cc1ccc(CO[C@H]2CCCN(Cc3ccc(C#N)cc3)C2)cc1`, which inhibition is on record?
Its inhibition is < 50%.

With `COc1ccc(CN2CCC[C@H](OCc3cccc(C)n3)C2)cc1F` as the compound, how does the inhibition read?
Its inhibition is < 50%.

For `Fc1ccc(COC2CCN(Cc3ncc4ccccn34)CC2)cc1F`, which inhibition is on record?
The inhibition was < 50%.

Which inhibition does the source give for `Fc1cccc(CO[C@H]2CCCN(Cc3cn4ccccc4n3)C2)c1` here?
Its inhibition is < 50%.

Which inhibition does the source give for `COc1ccc(CN2CCC[C@H](OCc3ccc(F)c(F)c3)C2)cc1F` here?
Its inhibition is < 50%.

For `COc1ccc(CN2CCC[C@H](OCc3ccc(C)cc3)C2)cc1F`, which inhibition is on record?
The inhibition was < 50%.

Which inhibition does the source give for `COc1ccc(CN2CCC[C@H](OCc3ccccc3C)C2)cc1F` here?
The inhibition was < 50%.

Which inhibition does the source give for `Fc1ccc(CO[C@H]2CCCN(Cc3cn4ccccc4n3)C2)cc1F` here?
The inhibition was < 50%.

Which inhibition does the source give for `Cn1ncc2cc(CN3CCC(OCc4ccc(Cl)c(F)c4)CC3)ccc21` here?
The inhibition was < 50%.

For `COc1ccc(CN2CCC[C@H](OCc3cccc(F)c3)C2)cc1F`, which inhibition is on record?
Its inhibition is < 50%.

For `COc1ccc(CN2CCC[C@H](OCc3ccc(F)c(C)c3)C2)cc1F`, which inhibition is on record?
The inhibition was < 50%.

target: T2, D(4) dopamine receptor (Homo sapiens) (UniProt P21917); test: Displacement of [3H]N-methylspiperone from human D4 receptor expressed in HEK293 cell membrane at 10 uM by competitive inhibition based analysis; type: cell membranes; conditions: filed as antagonist
T2 sequence (whole entry): T1 sequence (P21917 whole entry)

With `Cn1cnc2cc(CN3CCC(OCc4ccc(Cl)c(F)c4)CC3)ccc21` as the compound, how does the inhibition read?
Its inhibition is 48%.
